{"source": "paper PMC5104426", "about": "“Screening a Phage Display Library for Two Novel OmpU-Binding Peptides with Adhesion Antagonistic Activity against Vibrio mimicus” (PLoS ONE, 2016)", "key": {"grass carps": {"system": "grass carps", "experiment": "Acute toxicity to grass carps", "format": "in vivo, Ctenopharyngodon idella", "conditions": "100 mg/kg i.p., six fish per group; for survival in the 7-day study period: 7 days", "procedure": "Healthy grass carps weighting 50–52 g were purchased from a commercial fish farm in Anhui province of China, and then were maintained in a flow-through water system at a temperature of 25 ± 1°C and fed commercial pellets on a daily basis. After 14 days when grass carps were confirmed to be healthy, the water temperature was increased to 28 ± 1°C slowly, and the experiment began.\nFor acute toxicity detection, synthetic P1, P2 and unrelated control peptide was dissolved in sterile deionized water, respectively, and given to grass carps by intraperitoneal (i.p.) injection at a dose of 100 mg/kg, six fish per group. The number of fish surviving in each group was monitored for up to a period of 7 days after injection. At the end of the experiments, all surviving fish were euthanized in a solution of 200 mg/L of MS-222 followed by a blow to the head."}, "rOmpU fusion protein": {"system": "rOmpU fusion protein", "experiment": "Solid phase non-competitive ELISA (Beatty method), affinity constant", "format": "binding, Vibrio mimicus", "conditions": "for affinity constant: peptide coated 2.5-40 μg/mL, rOmpU 0.2-12.8 μg/mL, modified Beatty formula, triplicate, mean ± SD, SD; for AAP concentration at 50% OD492nm: from fitted curve equation", "procedure": "To determine the binding affinity of interactions between adhesion antagonistic peptide and rOmpU fusion protein, solid phase non-competitive ELISA method (also known as the Beatty method) was used to measure the affinity constant of adhesion antagonistic peptide. Briefly, adhesion antagonistic peptides were diluted to 40 μg/mL, 20 μg/mL, 10 μg/mL, 5 μg/mL and 2.5 μg/mL, respectively, and laterally coated onto plate wells (100 μL/well) at 4°C overnight. Next day, each well was blocked with 5% BSA at 37°C for 2 h, and then washed 6 times with TBST. Subsequently, rOmpU fusion protein were diluted to 12.8 μg/mL, 3.2 μg/mL, 0.8 μg/mL and 0.2 μg/mL, respectively, and longitudinally added to coated wells (100 μL/well), and the plates were incubated for 2 h at 37°C. After thorough washing, rabbit anti-rOmpU protein antibody, HRP labeled goat anti-rabbit IgG and substrate solution was added in turn, each step was preceded by 6 washes in TBST. OD492 nm values were finally determined. With OD492nm values as the ordinate and adhesion antagonistic peptide concentration as the abscissa, the binding reaction curves between adhesion antagonistic peptide and rOmpU fusion protein at different concentrations were plotted. MATLAB version 7.0 was used to fitting the binding response curve, and to derive the curve equation. From the equation, the corresponding adhesion antagonistic peptide concentration at 50% OD492nm value in the curve was obtained. The affinity constant K was calculated using a modified version of the Beatty formula [affinity constant (K) = (n—1) / 2 (nAb'total- Abtotal)] [11]. Ab'total and Abtotal in the formula represent respectively the corresponding adhesion antagonistic peptide concentration at 50% OD492nm value in the binding response curve when the concentration of rOmpU protein was P' and P; n represents P/P'. This assay was performed in triplicate."}, "[1]": {"system": "rOmpU fusion protein adhesion to EPC cells", "experiment": "Fluorescence-based adhesion assay: rOmpU protein adhesion to EPC cells", "format": "cell-based, Vibrio mimicus", "conditions": "500 μg/mL peptide mixed with equal volume of 500 μg/mL rOmpU, 1 h 28°C, then 1 h on fixed EPC cells; anti-OmpU/FITC immunofluorescence; triplicate", "procedure": "Synthetic OmpU-binding peptides were measure for their ability to antagonize OmpU protein adhesion to EPC cells by fluorescence-based adhesion assay. Briefly, EPC cells (1 × 10^6 cells/mL) were seeded in 24-well cell plate containing coverslip (Corning, NY, USA) and cultured to 80% confluence. The cells were gently washed 3 times with PBS and fixed with 4% paraformaldehyde at room temperature for 15 min. After 3 washes with PBS, cells were permeabilized with 0.5% Triton X-100 (500 μL/well) for 15 min. The cells were then washed 3 times with PBS and blocked with 2% BSA for 30 min. Subsequently, 500 μg/mL of each OmpU-binding peptide or irrelevant control peptide (used as negative control) solution were respectively mixed with an equal volume of 500 μg/mL rOmpU fusion protein, and the mixture was incubated for 1 h at 28°C and added to each well. The plates were incubated for 1 h at 28°C. After 3 washes, purified rabbit anti-OmpU antibody (prepared in our previous studies) at a dilution of 1:200 in PBS was added to each well and incubated for 1 h at 28°C, followed by 3 washes in PBS. A 1:100 dilution of FITC (fluorescein isothiocyanate)-labeled goat anti-rabbit IgG (Jackson ImmunoResearch Laboratories, Inc., USA) was added to each well and incubated in the dark for 1 h. After 3 washes in PBS, 4,6-Diamidino-2-phenylindole dihydrochloride (DAPI; Ziyi Reagent Co., Shanghai, China) was used to stain the nucleus, and the coverslips were observed under a fluorescence microscope. Each experiment was performed in triplicate, each sample being tested in three wells."}}, "data": [{"sequence": "SCTSPHCFMWLP [P2, adhesion antagonistic peptide]", "values": [{"measurement": "immediate adverse events (enervation or feed intake reduction)", "setting": "grass carps", "value": "no immediate adverse events"}, {"measurement": "survival in the 7-day study period", "setting": "grass carps", "value": "all the treated fish survived"}, {"measurement": "affinity constant", "setting": "rOmpU fusion protein", "value": "(1.24 ± 0.56) × 10^9 L/mol"}, {"measurement": "AAP concentration at 50% OD492nm", "setting": "rOmpU fusion protein; rOmpU concentration 0.2 μg/mL", "value": 0.70, "unit": "µg/mL"}, {"measurement": "AAP concentration at 50% OD492nm", "setting": "rOmpU fusion protein; rOmpU concentration 0.8 μg/mL", "value": 0.57, "unit": "µg/mL"}, {"measurement": "AAP concentration at 50% OD492nm", "setting": "rOmpU fusion protein; rOmpU concentration 3.2 μg/mL", "value": 0.56, "unit": "µg/mL"}, {"measurement": "AAP concentration at 50% OD492nm", "setting": "rOmpU fusion protein; rOmpU concentration 12.8 μg/mL", "value": 0.55, "unit": "µg/mL"}, {"measurement": "green fluorescence on the surface of EPC cells (surface-retained rOmpU)", "setting": "[1]", "value": "little or no green fluorescence"}]}, {"sequence": "TWTCSDVICTAR [P1, adhesion antagonistic peptide]", "values": [{"measurement": "immediate adverse events (enervation or feed intake reduction)", "setting": "grass carps", "value": "no immediate adverse events"}, {"measurement": "survival in the 7-day study period", "setting": "grass carps", "value": "all the treated fish survived"}, {"measurement": "affinity constant", "setting": "rOmpU fusion protein", "value": "(6.17 ± 0.19) × 10^8 L/mol"}, {"measurement": "AAP concentration at 50% OD492nm", "setting": "rOmpU fusion protein; rOmpU concentration 0.2 μg/mL", "value": 1.12, "unit": "µg/mL"}, {"measurement": "AAP concentration at 50% OD492nm", "setting": "rOmpU fusion protein; rOmpU concentration 0.8 μg/mL", "value": 1.05, "unit": "µg/mL"}, {"measurement": "AAP concentration at 50% OD492nm", "setting": "rOmpU fusion protein; rOmpU concentration 3.2 μg/mL", "value": 0.98, "unit": "µg/mL"}, {"measurement": "AAP concentration at 50% OD492nm", "setting": "rOmpU fusion protein; rOmpU concentration 12.8 μg/mL", "value": 0.86, "unit": "µg/mL"}, {"measurement": "green fluorescence on the surface of EPC cells (surface-retained rOmpU)", "setting": "[1]", "value": "little or no green fluorescence"}]}]}
